Where two headings read alike, the source gives them in different places.
Experiments:
human VR1 = biological target: T1, human VR1 (Homo sapiens, UniProt Q8NER1); test: Capsaicin-induced Ca2+ influx in the human VR1-transfected CHO cell line (Assay 1); assay type: cell-based
T1 construct: expressed in transfected cells
Procedure: [Measurement of Capsaicin-Induced Ca^2+ Influx in the Human VR1-Transfected CHO Cell Line] (Assay 1)
(1) Establishment of the Human VR1-CHOluc9aeq Cell Line
The cloned hVR1 cDNA was constructed with pcDNA3 vector and transfected into a CHOluc9aeq cell line. The cell line contains aequorin and CRE-luciferase reporter genes as read-out signals. The transfectants were cloned by limiting dilution in selection medium (DMEM/F12 medium (Gibco BRL) supplemented with 10% FCS, 1.4 mM Sodium pyruvate, 20 mM HEPES, 0.15% Sodium bicarbonate, 100 U/ml penicillin, 100 μg/ml streptomycin, 2 mM glutamine, non-essential amino acids and 2 mg/ml G418). Ca^2+ influx was examined in the capsaicin-stimulated clones. […] The human VR1-CHOluc9aeq cells were maintained in the selection medium and passaged every 3-4 days at 1-2.5×10^5 cells/flask ([…]).
(2) Measurement of Ca^2+ Influx Using FDSS-3000
Human VR1-CHOluc9aeq cells were suspended in a culture medium which is the same as the selection medium except for G418 and seeded at a density of 1,000 cells per well into 384-well plates (black walled clear-base/Nalge Nunc International). […] After washing twice with assay buffer the cells were incubated with a test compound or vehicle for 20 min at 25° C. […] Integral R was calculated and compared with controls.

[1] = human VR1-CHOluc9aeq cells, 10 nM capsaicin, compound purity about 40 to 90%, read-out: Activity grade
[2] = human VR1-CHOluc9aeq cells, 10 nM capsaicin, compound purity about 40 to 90%, read-out: hVR1 class

T1 sequence (Q8NER1 whole entry): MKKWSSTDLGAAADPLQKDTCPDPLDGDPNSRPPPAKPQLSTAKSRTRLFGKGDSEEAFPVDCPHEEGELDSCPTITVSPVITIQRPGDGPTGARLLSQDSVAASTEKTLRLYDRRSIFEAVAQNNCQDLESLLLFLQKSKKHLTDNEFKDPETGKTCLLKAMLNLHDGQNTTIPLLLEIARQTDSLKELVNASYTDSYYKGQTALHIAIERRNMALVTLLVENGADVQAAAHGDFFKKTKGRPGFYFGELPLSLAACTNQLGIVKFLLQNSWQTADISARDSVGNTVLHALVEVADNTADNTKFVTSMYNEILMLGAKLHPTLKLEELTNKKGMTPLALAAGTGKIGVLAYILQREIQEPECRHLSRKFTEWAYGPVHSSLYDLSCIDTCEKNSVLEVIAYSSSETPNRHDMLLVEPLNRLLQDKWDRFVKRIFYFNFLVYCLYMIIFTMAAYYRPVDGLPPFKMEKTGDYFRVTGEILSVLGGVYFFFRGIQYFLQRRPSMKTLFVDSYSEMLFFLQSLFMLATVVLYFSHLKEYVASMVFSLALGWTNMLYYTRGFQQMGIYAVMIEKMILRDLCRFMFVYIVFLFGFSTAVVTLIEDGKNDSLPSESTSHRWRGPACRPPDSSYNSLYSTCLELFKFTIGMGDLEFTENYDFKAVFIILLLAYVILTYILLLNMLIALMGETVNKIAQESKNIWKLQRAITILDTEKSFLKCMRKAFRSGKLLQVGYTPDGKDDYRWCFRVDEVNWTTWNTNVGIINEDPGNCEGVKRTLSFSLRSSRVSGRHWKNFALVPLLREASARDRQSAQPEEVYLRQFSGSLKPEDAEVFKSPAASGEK

SMILES | melting point | IC50 (human VR1; [1]) [nM] | IC50 (human VR1; [2]) [nM] | IC50 (human VR1) [nM]
COc1cc(CNC(=O)Nc2ccc(C(C)C)cc2)ccc1O [Example 1-1, N-(4-hydroxy-3-methoxybenzyl)-N′-(4-isopropylphenyl)urea] | 156 °C | – | – | < 100
O=C(Nc1ccc(Cl)c(Cl)c1)Nc1ccccc1CCO [Example 1-2, N-(3,4-dichlorophenyl)-N′-[2-(2-hydroxyethyl)phenyl]urea] | 188 to 190 °C | < 100 | – | –
COc1cc(CNC(=O)Nc2cccc(-c3ccc(Cl)cc3)c2)ccc1O [Example 2-1, N-(4′-chloro-1,1′-biphenyl-3-yl)-N′-(4-hydroxy-3 methoxybenzyl)urea] | 153.4 °C | < 100 | – | –
O=C(Nc1cccc(-c2ccccc2)c1)Nc1ccccc1CCO [Example 3-1, N-(1,1′-biphenyl-3-yl)-N′-[2-(2-hydroxyethyl)phenyl]urea] | 196 to 198 °C | < 100 | – | –
COc1cc(CNC(=O)Nc2c(C)cccc2C)ccc1O [Example 60] | 211 °C | – | 500 to 1000 | –
COc1cc(CNC(=O)Nc2ccc(C)cc2C)ccc1O [Example 62] | 184 °C | – | 500 to 1000 | –
COc1cc(CNC(=O)Nc2cc([N+](=O)[O-])ccc2F)ccc1O [Example 65] | 208 °C | – | 500 to 1000 | –
COc1cc(CNC(=O)Nc2ccc(F)c([N+](=O)[O-])c2)ccc1O [Example 66] | 184 °C | – | – | 100 to 500
COc1cc(CNC(=O)Nc2cccc3ccccc23)ccc1O [Example 70] | 149 °C | – | – | < 100
COc1cc(CNC(=O)Nc2c(C)cc(C)cc2C)ccc1O [Example 72] | 217 °C | – | 500 to 1000 | –
COc1cc2c(cc1O)CN(C(=O)Nc1ccc(Cl)c(C(F)(F)F)c1)CC2 [Example 78] | 130 °C | – | – | –
COc1cc(CNC(=O)Nc2cccc(C)c2)ccc1O [Example 82] | 181 °C | – | – | 100 to 500
Nc1ccc2c(c1)C(NC(=O)Nc1ccc(Cl)c(C(F)(F)F)c1)CCC2 (centres unmarked) [Example 96] | 178 °C | – | 500 to 1000 | –
O=C(Nc1ccccc1Cl)Nc1ccccc1CCO [Example 104] | 173 to 175 °C | – | 500 to 1000 | –
O=C(Nc1cccc(Cl)c1)Nc1ccccc1CCO [Example 105] | 188 to 190 °C | – | 500 to 1000 | –
O=C(Nc1ccc(Cl)cc1)Nc1ccccc1CCO [Example 106] | 185 to 187 °C | – | 500 to 1000 | –
O=C(Nc1ccc([N+](=O)[O-])cc1)Nc1ccccc1CCO [Example 110] | 178 °C | – | 500 to 1000 | –
O=C(Nc1ccc(F)c([N+](=O)[O-])c1)Nc1ccccc1CCO [Example 111] | 185 °C | – | 500 to 1000 | –
O=C(Nc1cc([N+](=O)[O-])ccc1F)Nc1ccccc1CCO [Example 112] | 183 °C | – | 500 to 1000 | –
O=C(Nc1ccc(Br)cc1)Nc1ccccc1CCO [Example 114] | 208 °C | – | 500 to 1000 | –
Cc1cc(C)c(NC(=O)Nc2ccccc2CCO)c(C)c1 [Example 115] | 243 °C | – | 500 to 1000 | –
Cc1cccc(C)c1NC(=O)Nc1ccccc1CCO [Example 116] | 226 °C | – | 500 to 1000 | –
CC(=O)c1cccc(NC(=O)Nc2ccccc2CCO)c1 [Example 117] | 177 °C | – | 500 to 1000 | –

SMILES | melting point | IC50 (human VR1; [1]) [nM] | IC50 (human VR1; [2]) [nM] | IC50 (human VR1) [nM]
COC(=O)c1ccccc1NC(=O)Nc1ccccc1CCO [Example 118] | 128 °C | – | 500 to 1000 | –
O=C(NCc1ccccc1F)Nc1ccccc1CCO [Example 119] | 141 to 143 °C | – | 500 to 1000 | –
O=C(NCc1cccc(F)c1)Nc1ccccc1CCO [Example 120] | 160 to 162 °C | – | 500 to 1000 | –
O=C(NCc1ccc(F)cc1)Nc1ccccc1CCO [Example 121] | 165 to 167 °C | – | 500 to 1000 | –
CN(C)c1ccc(NC(=O)Nc2ccccc2CCO)cc1 [Example 122] | 187 to 188 °C | – | 500 to 1000 | –
Cc1ccccc1CNC(=O)Nc1ccccc1CCO [Example 123] | 186 to 188 °C | – | 500 to 1000 | –
Cc1cccc(CNC(=O)Nc2ccccc2CCO)c1 [Example 124] | 148 to 150 °C | – | 500 to 1000 | –
Cc1ccc(CNC(=O)Nc2ccccc2CCO)cc1 [Example 125] | 181 to 183 °C | – | 500 to 1000 | –
O=C(NCc1ccccc1Cl)Nc1ccccc1CCO [Example 126] | 183 to 185 °C | – | 500 to 1000 | –
COc1ccc(CNC(=O)Nc2ccccc2CCO)cc1 [Example 127] | 175 to 177 °C | – | 500 to 1000 | –
Cc1cccc(NC(=O)Nc2ccccc2CCO)c1 [Example 129] | 186 °C | – | 500 to 1000 | –
O=C(Nc1ccc(F)cc1)Nc1ccccc1CCO [Example 131] | 183 °C | – | 500 to 1000 | –
O=C(Nc1cccc(F)c1)Nc1ccccc1CCO [Example 132] | 166 °C | – | 500 to 1000 | –
Cc1ccc(NC(=O)Nc2ccccc2CCO)c(C)c1 [Example 133] | 181 °C | – | 500 to 1000 | –
COc1ccccc1NC(=O)Nc1ccccc1CCO [Example 134] | 154 °C | – | 500 to 1000 | –
COc1cccc(NC(=O)Nc2ccccc2CCO)c1 [Example 135] | 169 °C | – | 500 to 1000 | –
COc1ccc(NC(=O)Nc2ccccc2CCO)cc1 [Example 136] | 186 °C | – | 500 to 1000 | –
O=C(Nc1ccc(F)cc1F)Nc1ccccc1CCO [Example 145] | 174 to 176 °C (dec.) | – | 500 to 1000 | –
CCOc1ccccc1NC(=O)Nc1ccccc1CCO [Example 146] | 112 to 114 °C (dec.) | – | 500 to 1000 | –
O=C(Nc1ccccc1CCO)Nc1ccccc1[N+](=O)[O-] [Example 147] | 112 to 114 °C | – | 500 to 1000 | –
Cc1ccc(NC(=O)Nc2ccccc2CCO)cc1Cl [Example 148] | 195 to 196 °C | – | 500 to 1000 | –
O=C(Nc1ccccc1CCO)Nc1cccc2ccccc12 [Example 149] | 188 to 191 °C (dec.) | – | 500 to 1000 | –
COc1ccc(NC(=O)Nc2ccccc2CCO)c(OC)c1 [Example 150] | 189 to 190 °C | – | 500 to 1000 | –

Continued, in another order:

melting point | IC50 (human VR1; [1]) [nM] | IC50 (human VR1; [2]) [nM] | SMILES | IC50 (human VR1) [nM]
133 °C | – | 500 to 1000 | COc1cccc(NC(=O)NCc2ccc(O)c(OC)c2)c1 [Example 34] | –
177.5 °C | – | 500 to 1000 | COc1ccc2c(c1)C(NC(=O)Nc1ccc(F)cc1)CCC2 (centres unmarked) [Example 53] | –
193 °C | – | < 100 | COc1cc(CNC(=O)Nc2ccc(Cl)c(C(F)(F)F)c2)ccc1O [Example 55] | –
211 to 212 °C | – | 500 to 1000 | COc1cc(CNC(=O)Nc2ccc(F)cc2)ccc1O [Example 56] | –
144 °C | – | 500 to 1000 | COc1cc(CNC(=O)Nc2ccccc2OC)ccc1O [Example 57] | –
180 °C | – | 500 to 1000 | COc1cc(CNC(=O)Nc2ccccc2[N+](=O)[O-])ccc1O [Example 58] | –
203 °C | – | 100 to 500 | COc1cc(CNC(=O)Nc2ccc(Br)cc2)ccc1O [Example 63] | –
180 °C | – | 100 to 500 | COc1cc(CNC(=O)Nc2ccc(Cl)c([N+](=O)[O-])c2)ccc1O [Example 64] | –
207 °C | – | < 100 | COc1cc(CNC(=O)Nc2ccc(Cl)c(Cl)c2)ccc1O [Example 71] | –
210 °C | – | < 100 | COc1cc(CNC(=O)Nc2ccc(Cl)cc2)ccc1O [Example 83] | –
175 to 177 °C | – | < 100 | O=C(Nc1ccc(Cl)c(C(F)(F)F)c1)Nc1ccccc1CCO [Example 98] | –
133 to 135 °C | – | < 100 | O=C(Nc1ccc(Oc2ccccc2)cc1)Nc1ccccc1CCO [Example 99] | –
152 to 153 °C | – | 100 to 500 | CCOC(=O)c1cccc(NC(=O)Nc2ccccc2CCO)c1 [Example 100] | –
149 to 150 °C | – | 100 to 500 | CC(C)c1ccc(NC(=O)Nc2ccccc2CCO)cc1 [Example 101] | –
195 to 197 °C | – | 100 to 500 | O=C(Nc1ccc2ccccc2c1)Nc1ccccc1CCO [Example 102] | –
198 to 200 °C | – | 100 to 500 | O=C(NCc1ccc(Br)cc1)Nc1ccccc1CCO [Example 103] | –
173 to 175 °C | – | 100 to 500 | O=C(Nc1cccc(C(F)(F)F)c1)Nc1ccccc1CCO [Example 107] | –
178 to 180 °C | – | 100 to 500 | O=C(Nc1ccc(C(F)(F)F)cc1)Nc1ccccc1CCO [Example 108] | –
214 to 216 °C | – | 100 to 500 | O=C(Nc1cc(Cl)cc(Cl)c1)Nc1ccccc1CCO [Example 109] | –
170 °C | – | 100 to 500 | O=C(Nc1ccc(Cl)c([N+](=O)[O-])c1)Nc1ccccc1CCO [Example 113] | –
